Results from publication PMC10532587, “An Investigation of Structure–Activity Relationships and Cell Death Mechanisms of the Marine Alkaloids Discorhabdins in Merkel Cell Carcinoma Cells” (Marine Drugs, 2023).
Like-named read-outs stand apart in the source and are kept apart here.

Columns and labels:
MCC13 = test: Cell survival by CellTiterGlo, VN-MCC line MCC13; assay type: cell-based; conditions: for AUC (arbitrary units) MCC13: area under the dose-response curve; for IC50: CellTiterGlo, normalized to DMSO
[1] = test system: control (HaCaT) and Merkel cell carcinoma cell lines; test: Cell survival by CellTiterGlo, all seven cell lines; assay type: cell-based; conditions: for IC50: Homo sapiens, HaCaT
Experimental: (§1) Three methods were employed for assessment of MCC and control cell survival/viability after discorhabdin treatment, two metabolic assays and a cell permeability assay. For all three methods, cells were plated in 384-well plates at 2500 cells/well and treated with various concentrations of discorhabdins for various time periods. CellTiterGlo^TM (Promega, Madison, WI, USA) measures cellular ATP content and was used to estimate potency of discorhabdins in cell viability assays as previously described. Continuous monitoring of metabolic activity was accomplished using a cellular reducing potential luminescence assay, the RealTime-Glo^TM MT Cell Viability Assay (Promega, Madison, WI, USA) according to manufacturer’s instructions. Loss of cell plasma membrane integrity was assessed using a cell-impermeant molecule that becomes fluorescent upon binding DNA [82] in parallel with apoptosis detection per manufacturer’s instructions (RealTimeGlo^TM Annexin V Apoptosis and Necrosis Assay-Promega). Two additional assays of apoptotic cell death were also used. Caspase activation in response to treatment of MCC cells by discorhabdins or bortezomib (as a positive control) was measured using the CaspaseGlo® 3/7 Assay (Promega, Madison, WI, USA) according to the manufacturer’s instructions at multiple time points. Inhibition of apoptotic cell death was investigated using pre-treatment of cells with for 1 h with the pan-caspase inhibitor Z-VAD-FMK (Enzo Life Sciences, Farmingdale, NY, USA) followed by treatment with discorhabdins or bortezomib and estimation of cell viability as outlined above.
(§2) In order to compare responses among all of the discorhabdins and cell lines (98 combinations), dose–response curves were generated using identical discorhabdin dilution series. GraphPad Prism 8 (San Diego, CA, USA) software was utilized to graph dose–response data and to calculate IC50 values and area under the dose–response curves (AUC) along with 95% confidence interval estimates using four-parameter logistic nonlinear regression analysis. For further analysis and comparisons, AUC for each cell line/discorhabdin pair was visualized in a heatmap generated in R version 1.3.1073 (R Core Team (2013). R: A language and environment for statistical computing. R Foundation for Statistical Computing, Vienna, Austria, http://www.R-project.org/ (accessed on 12 January 2023).
Figure S39: Activity of discorhabdins against M CC cell lines.
The indicated discorh abd ins were ass essed for th eir ability to affect surviv al of control (H aCaT) and Merkel cell carcino ma cell lines (VN-MCC: MCC13, MCC26, UISO and VP -MCC: MKL-1, MKL-2, Wag a). Cells were plat ed at 2500 cells/well and compounds the next day. Cell survival was estimated by CellTiterGlo (normalized to untreated (DMSO) cells on the same plate). Structures w ere o btained from the supplier and/or the PubChem database or as described in the text. Number in bold in ( ) refers to structures in Figure 1 in the text. Curves were plotted and IC50 values and 95% confidence interval calculated by GraphPad software. […]

UISO = test: Cell survival by CellTiterGlo, VN-MCC line UISO; assay type: cell-based; conditions: for AUC (arbitrary units) UISO: area under the dose-response curve; for IC50: CellTiterGlo, normalized to DMSO
Waga = test: Cell survival by CellTiterGlo, VP-MCC line Waga; assay type: cell-based; conditions: for AUC (arbitrary units) WaGa: area under the dose-response curve; for IC50: CellTiterGlo, normalized to DMSO
MCC26 = test: Cell survival by CellTiterGlo, VN-MCC line MCC26; assay type: cell-based; conditions: for AUC (arbitrary units) MCC26: area under the dose-response curve; for IC50: CellTiterGlo, normalized to DMSO
HaCaT = test: Cell survival by CellTiterGlo, control cells; assay type: cell-based, human; conditions: for AUC (arbitrary units) HaCaT: area under the dose-response curve, control cells; for IC50: Homo sapiens, HaCaT, control skin cell line, CellTiterGlo, normalized to DMSO, read-out: IC50 (nM) HaCaT
MKL-1 = test: Cell survival by CellTiterGlo, VP-MCC line MKL-1; assay type: cell-based; conditions: for IC50: MKL-1, CellTiterGlo; for AUC (arbitrary units) MKL-1: area under the dose-response curve
MKL-2 = test: Cell survival by CellTiterGlo, VP-MCC line MKL-2; assay type: cell-based; conditions: for AUC (arbitrary units) MKL-2: area under the dose-response curve
MCC cell lines = test: Cell survival by CellTiterGlo, MCC cell lines together; assay type: cell-based; conditions: average over MCC cell lines
Experimental: as §1, §2

[2] = CellTiterGlo, 10 µM highest concentration tested, read-out: IC50, all cell lines
[3] = essentially inactive compounds, read-out: average IC50 against all the cell lines
[4] = VP-MCC, normalized to DMSO, read-out: IC50 (nM) MKL-1

SMILES	AUC (arbitrary units) MCC13 (MCC13)	IC50 [1, 2]	IC50 [1, 3]	AUC (arbitrary units) UISO (UISO)	AUC (arbitrary units) WaGa (Waga)	AUC (arbitrary units) MCC26 (MCC26)	AUC (arbitrary units) HaCaT (HaCaT)	IC50 (MKL-1; printed in brackets beside the all-cell-lines bound, read-out: IC50 MKL-1)	AUC (arbitrary units) MKL-1 (MKL-1; VP-MCC)	activity on cell viability, in words ([1]; MCC and control cell lines)	AUC (arbitrary units) MKL-2 (MKL-2)	IC50 (MCC13)	IC50 (UISO)	IC50 (Waga)	IC50 (MCC26)	IC50 (HaCaT)	IC50 (MKL-1; [4])	averaged potency (IC50) across all MCC cell lines tested (MCC cell lines)	IC50 (MKL-2; CellTiterGlo, normalized to DMSO)
O=C1C=CC2(C=C1)CCNC1=C2C2=NCCc3c[nH]c(c32)C1=O [Compound 21, didebromodiscorhabdin C]	883 arbitrary units	> 10 µM	> 5 µM	851.9 arbitrary units	973.8 arbitrary units	866.1 arbitrary units	952.2 arbitrary units	> 5000 nM	682.4 arbitrary units										
O=C1C=C2SC3CC2(C=C1Br)C1=C(N3)C(=O)c2[nH]cc3c2C1=NCC3 (single isomer, unassigned; (-)) [(-)B]	41.45 arbitrary units			33.26 arbitrary units	5.814 arbitrary units	80.18 arbitrary units	114.3 arbitrary units		1.929 arbitrary units	comparable activity against MCC and control cell lines	9.451 arbitrary units								
O=C1C(Br)=CC2(C=CNC3=C2C2=NCCc4c[nH]c(c42)C3=O)C=C1Br [Compound 20, 7,8-dehydrodiscorhabdin C]	694.4 arbitrary units		> 5 µM	542.4 arbitrary units	661 arbitrary units	815.8 arbitrary units	940.1 arbitrary units		376.3 arbitrary units			7480 nM	5570 nM	7430 nM	~10000 nM	> 10000 nM	3260 nM		
O=C1C=C[C@@]23C[C@@H](NC4=C2C2=NCCc5c[nH]c(c52)C4=O)SC3=C1 [Compound 4, (+)-(6S,8S) discorhabdin G*/I]	124.8 arbitrary units			121.7 arbitrary units	105.3 arbitrary units	140 arbitrary units	267.7 arbitrary units		54.17 arbitrary units		108.8 arbitrary units	940 nM	921 nM	859 nM	1280 nM	2450 nM	481 nM	sub-micromolar	879 nM
Cn1cnc(S[C@H]2[C@H]3C(=O)C=C4S[C@H]5C[C@]42C2=C(N5)C(=O)c4[nH]cc5c4C2=[N+]3CC5)c1C[C@H](N)C(=O)O (relative stereo) [Compound 14, (−)-(1R,2R,6R,8S,7′S*) discorhabdin H]	950.6 arbitrary units	> 10 µM	> 5 µM	952.3 arbitrary units	930 arbitrary units	947 arbitrary units	992.5 arbitrary units		901.7 arbitrary units		946.5 arbitrary units								
